The results in this text go back to paper PMC6202246 (Nature chemical biology, 2018).

SMILES strings stand for the structures.

The subject of the test is BRD2BD1, BRD2BD2, BRD3BD1, BRD3BD2, BRD4BD1, BRD4BD2 EGFP reporters. In words: EGFP/mCherry reporter assay across individual BET bromodomains. The format is cell-based, human. Conditions: BRD2/3/4 BD1 and BD2 reporter cells, 5 h. On the technique in general: A reporter such as luciferase makes a cellular process visible.

On to `Cc1sc2c(c1C)C(c1ccc(Cl)cc1)=N[C@@H](CC(=O)NCCCCCCCCNC(=O)COc1cccc3c1C(=O)N(C1CCC(=O)NC1=O)C3=O)c1nnc(C)n1-2` (stereo partly shown) [dBET6], for which the “activity profile across BET bromodomain reporters” value is listed as “activity on most bromodomains”.
